16 molecules from patent US5719287A, “Intermediates for inhibitors of HIV protease and method of preparation thereof” (Eli Lilly and Company, priority 1995, dated 1998) can be followed below.

Structures are written as SMILES.

The first experiment concerns the target T1, HIV-1 protease (Human immunodeficiency virus type 1 group M subtype B, UniProt P04585).
T1 construct: Purified HIV-1 protease was obtained as described below; made in house; host or cells: E. coli K12 L507/pHP10D (NRRL B-18560)
Briefly: biochemical. To be noted: purified HIV-1 protease, MES-ALB buffer pH 5.5; 1 h preincubation, 16 h with substrate, room temperature; IC50 values for Examples 2-70 are standardized relative to Ex 1. The method, then: N^α -Biotin-[…]Ne-FITC)-OH
The purified peptide was labeled as follows with a fluorescent marker at the C-terminal end for use in the assay. N^α -Biotin-Gly-Ser-Gln-Asn-Tyr-Pro-lle-Val-Gly-Lys-OH (1.206 g, 0.936 mmoles) was dissolved in 100 mL of 0.1M sodium borate, pH 9.5 with stirring. Then, 3 g of fluorescein isothiocyanate (7.7 mmol) was dissolved in 15 mL dimethyl sulfoxide and the solution added to the reaction in 10 equal portions over the course of a two hour period. The reaction was allowed to proceed for a further one hour after the final addition had been made. The pH of the solution was adjusted to 3 with 5N HCl. A precipitate formed which was removed from the reaction by centrifugation.
Fluorescence HIV-1 Protease Inhibitor Assay Procedure.
To each well of a round bottom, 96-well plate is added 20 μl of the Enzyme Solution followed by 10 μl of the compound to be evaluated in 20% aqueous DMSO. Purified HIV-1 protease was obtained as described below. The solution is incubated for one hour at room temperature and then 20 μl of a solution of the substrate N^α -Biotin-[…]N^e -FITC)-OH, in MES-ALB buffer (1.5 μl/ml) is added to each well. The solutions are incubated for 16 hours at room temperature and thereafter to each well is added 150 μl of MES-ALB buffer.
To each well of a 96-well Pandex plate is added 25 μl of the Avidin Coated Beads Solution. Next, 25 μl of the diluted incubation solutions, described above, are added to each well of the Pandex plate. The solutions are mixed well and the plates are loaded into a Pandex® machine, washed, evacuated and read. Sample detection was performed by excitation at 485 nm and reading the resulting epifluorescence at 535 nm.
A culture of E. coli K12 L507/pHP10D was grown to mid-log phase at 32° C. in LB media containing 12.5 μg/ml tetracycline. The cultivation temperature was quickly elevated to 40° C. to induce gene expression, and the cells were allowed to grow for 2.5 hours at this temperature before the culture was quickly chilled on ice. The cells were centrifuged and the cell pellet was resuspended in 20 ml 50 mmol MES buffer (pH 6.0) containing 1 mmol EDTA, 1 mmol DTT, 1 mmol PMSF, and 10% glycerol (Buffer A). Cells were lysed by sonication using a Fischer Model 300 Dismembrator and a microtip probe. […] Enzymatic activity was measured by HPLC using the synthetic peptide SQNYPIV as described in Margolin et al., Biochem. Biophys. Res. Commun., 167, 554-560 (1990); the production of the pl peptide (SQNY) was measured.
Active fractions were pooled, made 1.2M in ammonium sulfate, and applied to a hexyl agarose column (2.0×18 cm) equilibrated in Buffer A containing 1.2M ammonium sulfate. The sample, in 125 ml (1.85 mg/ml), was loaded at a flow rate of 1 ml/min at 4° C. […] The column was then washed isocratically in Buffer A for 120 min. Active fractions were pooled, concentrated to 10 ml using an Amicon stirred cell with a YM-10 membrane, and applied at 1 ml/min to a MonoS cation exchange column (1.0×10 cm) equilibrated in Buffer A. After washing isocratically for 30 min, protease was eluted using a linear gradient of 0-0.45M NaCl in Buffer A over 40 min followed by an isocratic wash with Buffer A containing 0.45M NaCl over 30 min. Chromatography was performed at 25° C.
Pooled active fractions were concentrated to 200 ul using an Amicon stirred cell and a YM-10 membrane, and the protease was then applied to a Superose 6 size exclusion column equilibrated in Buffer A containing 0.1M NaCl. The column was washed isocratically in this buffer at a flow rate of 0.5 ml/min.
Regarding `CC(C)(C)NC(=O)c1ccccc1C[C@@H](O)[C@H](Cc1ccccc1)NC(=O)[C@H](CC(N)=O)NC(=O)OCc1ccccc1` (relative stereo) [Example 11, [2R-(2R*, 3S*, 6S*)]-N-t-butyl-2-(2-hydroxy-3-phenylmethyl-4-aza-5-oxo-6-(2-amino-2-oxomethyl)-6-phenylmethoxycarbonyl)hexyl)benzamide], the “Fluorescence Assay IC50” value was 0.01 µg/mL.

The experiment is the same for the next values; noted with them: read-out: Fluorescence Assay IC50 (converted).
As usually defined, the IC50 is the midpoint of a concentration-inhibition curve. Regarding `CC(C)(C)NC(=O)c1cc2ccccc2cc1C[C@@H](O)[C@H](Cc1ccccc1)NC(=O)[C@H](CC(N)=O)NC(=O)c1ccc2ccccc2n1` (relative stereo) [Example 5, 1S-(1R*. 4R*, 5S*)]-N-(1-(2-amino-2-oxoethyl)-2-oxo-3-aza-4-phenylmethyl-5-hydroxy-6-(3-(1-t-butylamino-1-oxomethyl)-2-naphthyl)hexyl)-2-quinolinyl carboxamide], the IC50 is 12.7 nM.

Regarding `CC(C)(C)NC(=O)c1ccccc1C[C@@H](O)[C@H](Cc1ccccc1)NC(=O)[C@H](CC(N)=O)NC(=O)C1Cc2ccccc2CN1` (single isomer, unassigned) [Example 36, [1S-(1R*, 4R*, 5S*)]-N-(1-(2-amino-2-oxoethyl)-2-oxo-3-aza-4-phenylmethyl-5-hydroxy-6-(2-(1-t-butylamino-1-oxomethyl)phenyl)hexyl)-3-(1,2,3,4-tetrahydroisoquinolinyl) carboxamide], the IC50 is 1060 nM.

In the case of `CC(C)(C)NC(=O)c1ccccc1C[C@@H](O)[C@H](Cc1ccccc1)NC(=O)[C@H](CC(N)=O)NC(=O)C1Cc2ccccc2CN1` (single isomer, unassigned) [Example 37, [1S-(1R*, 4R*, 5S*)]-N-(1-(2-amino-2-oxoethyl)-2-oxo-3-aza-4-phenylmethyl-5-hydroxy-6-(2-(1-t-butylamino-1-oxomethyl)phenyl)hexyl)-3-(1,2,3,4-tetrahydroisoquinolinyl) carboxamide], the IC50 was 34.2 nM.

As for `CC(C)(C)NC(=O)c1ccccc1C[C@@H](O)[C@H](Cc1ccccc1)NC(=O)[C@H](CC(N)=O)NC(=O)c1ccc2ccccc2[n+]1[O-]` [Example 7, [1S-(1R*, 4R*, 5S*)]-N-(1-(2-amino-2-oxoethyl)-2-oxo-3-aza-4-phenylmethyl-5-hydroxy-6-(2-(1-t-butylamino-1-oxomethyl)phenyl)hexyl)-1-oxo-2-quinolinyl carboxamide], the IC50 is 28.8 nM.

On to `CC(C)(C)NC(=O)c1ccccc1C[C@@H](O)[C@H](Cc1ccc(OCc2ccccc2)cc1)NC(=O)[C@H](CC(N)=O)NC(=O)c1ccc2ccccc2n1` [Example 9, [1S-(1R*, 4R*, 5S*)]-N-(1-(2-amino-2-oxoethyl)-2-oxo-3-aza-4-(4-phenylmethyloxy)phenylmethyl-5-hydroxy-6-(2-(1-t-butylamino-1-oxomethyl)phenyl)hexyl)-2-quinolinyl carboxamide], for which the IC50 is 12 nM.

On to `CC(C)(C)NC(=O)c1ccccc1C[C@@H](O)[C@H](Cc1ccc(O)cc1)NC(=O)[C@H](CC(N)=O)NC(=O)c1ccc2ccccc2n1` [Example 10, [1S-(1R*, 4R*. 5S*) ]-N-(1-(2-amino-2-oxoethyl)-2-oxo-3-aza-4-(4-hydroxyphenyl)methyl-5-hydroxy-6-(2-(1-t-butylamino-1-oxomethyl)phenyl)hexyl)-2-quinolinyl carboxamide], for which the IC50 was 94.3 nM.

With `CC(C)(C)NC(=O)c1ccccc1C[C@@H](O)[C@H](Cc1ccccc1)NC(=O)[C@H](CO)NC(=O)OCc1ccccc1` [Example 12, [2R-(2R*, 3S*, 6S*)]-N-t-butyl-2-(2-hydroxy-3-phenylmethyl-4-aza-5-oxo-6-hydroxymethyl-6-(N-phenylmethoxycarbonyl-amino)hexyl)benzamide], the IC50 is 890 nM.

Regarding `CC(C)(C)C(=O)Nc1ccccc1C[C@@H](O)[C@H](Cc1ccccc1)NC(=O)[C@H](CC(N)=O)NC(=O)c1ccc2ccccc2n1` [Example 18, [1S-(1R*, 4R*, 5S*)]-N-(1-(2-amino-2-oxoethyl)-2-oxo-3-aza-4-phenylmethyl-5-hydroxy-6-(2-(2,2-dimethyl-1-oxopropylamino)phenyl)hexyl)-2-quinolinyl carboxamide], the concentration for half-maximal inhibition (IC50) is 50.8 nM.

Regarding `CC(C)(C)NC(=O)c1ccccc1C[C@@H](O)[C@H](Cc1ccccc1)NC(=O)[C@H](CC(N)=O)NC(=O)c1ccc2ccccc2c1` [Example 19, [1S-(1R*, 4R*, 5S*)]-N-(1-(2-amino-2-oxoethyl)-2-oxo-3-aza-4-phenylmethyl-5-hydroxy-6-(2-(1-t-butylamino-1-oxomethyl)phenyl)hexyl)-2-naphthyl carboxamide], the IC50 is 3.45 nM.

Take `CC(C)(C)NC(=O)c1ccccc1C[C@@H](O)[C@H](Cc1ccccc1)NC(=O)[C@H](CC(N)=O)NC(=O)c1cnc2ccccc2n1` [Example 20, [1S-(1R*, 4R*, 5S*)]-N-(1-(2-amino-2-oxoethyl)-2-oxo-3-aza-4-phenylmethyl-5-hydroxy-6-(2-(1-t-butylamino-1-oxomethyl)phenyl)hexyl)-2-quinoxalinyl carboxamide]: the IC50 was 1.15 nM.

On to `CC(C)(C)NC(=O)c1ccccc1C[C@@H](O)[C@H](Cc1ccccc1)NC(=O)[C@H](CC(N)=O)NC(=O)c1cc2ccccc2[nH]1` [Example 21, [1S-(1R*, 4R*. 5S*)]-N-(1-(2-amino-2-oxoethyl)-2-oxo-3-aza-4-phenylmethyl-5-hydroxy-6-(2-(1-t-butylamino-1-oxomethyl)phenyl)hexyl)-2-indolyl carboxamine], for which the IC50 is 4.18 nM.

In the case of `CC(C)(C)NC(=O)c1ccccc1C[C@@H](O)[C@H](Cc1ccccc1)NC(=O)[C@H](CC(N)=O)NC(=O)c1cc2ccccc2s1` [Example 22, [1S-(1R*, 4R*, 5S*)]-N-(1-(2-amino-2-oxoethyl)-2-oxo-3-aza-4-phenylmethyl-5-hydroxy-6-(2-(1-t-butylamino-1-oxomethyl)phenyl)hexyl)-2-benzo[b]thienyl carboxamide], the IC50 is 10.7 nM.

Consider `Cc1ccc2ccc(C(=O)N[C@@H](CC(N)=O)C(=O)N[C@@H](Cc3ccccc3)[C@H](O)Cc3ccccc3C(=O)NC(C)(C)C)nc2c1` [Example 23, [1S-(1R*, 4R*, 5S*)]-N-(1-(2-amino-2-oxoethyl)-2-oxo-3-aza-4-phenylmethyl-5-hydroxy-6-(2-(1-t-butylamino-1-oxomethyl)phenyl)hexyl)-7-methylquinolin-2-yl carboxamide], for which the IC50 is 0.641 nM.

As for `Cc1cccc2ccc(C(=O)N[C@@H](CC(N)=O)C(=O)N[C@@H](Cc3ccccc3)[C@H](O)Cc3ccccc3C(=O)NC(C)(C)C)nc12` [Example 24, [1S-(1R*, 4R*, 5S*)]-N-(1-(2-amino-2-oxoethyl)-2-oxo-3-aza-4-phenylmethyl-5-hydroxy-6-(2-(1-t-butylamino-1-oxomethyl)phenyl)hexyl)-8-methylquinolin-2-yl carboxamide], the IC50 was 0.481 nM.

Consider `Cc1cc(C(=O)N[C@@H](CC(N)=O)C(=O)N[C@@H](Cc2ccccc2)[C@H](O)Cc2ccccc2C(=O)NC(C)(C)C)nc2ccccc12` [Example 26, [1S-(1R*, 4R*, 5S*)]-N-(1-(2-amino-2-oxoethyl)-2-oxo-3-aza-4-phenylmethyl-5-hydroxy-6-(2-(1-t-butylamino-1-oxomethyl)phenyl)hexyl)-4-methylquinolin-2-yl carboxamide], for which the IC50 is 1.12 nM.
